Results as given in PMC2637613 (Basic & clinical pharmacology & toxicology, 2008).
Where a name gives a salt, the structure may show the parent alone.

Assays:
BCRP [1] = target: T1, BCRP (Homo sapiens, UniProt Q9UNQ0); conditions: estimated liver concentration divided by BCRP IC50 in MCF7/MX100 cells
T1 sequence (Q9UNQ0 1-655): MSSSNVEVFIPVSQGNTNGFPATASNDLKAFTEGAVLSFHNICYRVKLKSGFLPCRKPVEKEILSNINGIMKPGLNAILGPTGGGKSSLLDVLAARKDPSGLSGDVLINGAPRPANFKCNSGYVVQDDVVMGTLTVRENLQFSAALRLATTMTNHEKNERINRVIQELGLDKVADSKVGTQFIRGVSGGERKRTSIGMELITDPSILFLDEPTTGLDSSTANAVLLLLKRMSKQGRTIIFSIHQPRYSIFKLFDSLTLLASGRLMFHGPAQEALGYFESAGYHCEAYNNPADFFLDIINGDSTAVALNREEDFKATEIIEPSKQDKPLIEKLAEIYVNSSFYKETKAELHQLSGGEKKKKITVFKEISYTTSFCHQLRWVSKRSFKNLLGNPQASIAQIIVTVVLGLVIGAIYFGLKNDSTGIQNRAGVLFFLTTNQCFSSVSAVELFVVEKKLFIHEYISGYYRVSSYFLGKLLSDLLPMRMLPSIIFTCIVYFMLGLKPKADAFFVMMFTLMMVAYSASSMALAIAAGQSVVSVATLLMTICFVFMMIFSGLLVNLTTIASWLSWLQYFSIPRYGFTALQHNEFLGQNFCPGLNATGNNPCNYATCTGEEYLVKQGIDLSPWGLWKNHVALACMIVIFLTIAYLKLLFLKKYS

[2] = read-out: Cmax (mean maximal plasma concentration), patients, ref Aravagiri et al. 1998, Hiemke et al. 2004, Suzuki et al. 2001, Yeung et al. 1993; cited from earlier work
BCRP [3] = target: T1, BCRP; assay: cell-based
[4] = calculated from mean tissue to plasma AUC ratios; ref [16]; Aravagiri et al. 2002; Aravagiri et al. 1999; Manjunath and Venkateswarlu 2005; Hopenwasser et al. 2004; Sgaragli et al. 1995; Miyazaki et al. 1986; cited from earlier work

Row | SMILES | Cmax * liver:plasma partition ratio/IC50 (BCRP [1]) | IC50 (BCRP [3]) [µM] | Cmax [2] [nM] | Liver:plasma partition ratio [4]
1 | CN(C)CCCN1c2ccccc2Sc2ccc(Cl)cc21 [Chlorpromazine, chlorpromazine hydrochloride] | 0.6 | 52.2 | 300 | 97.7 ^9
2 | CN1CCN(C2=Nc3cc(Cl)ccc3Nc3ccccc32)CC1 [Clozapine, clozapine] | – | 42 | 2500 | –
3 | Cc1cc2c(s1)Nc1ccccc1N=C2N1CCN(C)CC1 [Olanzapine] | – | – | 300 | –
4 | Cc1nc2n(c(=O)c1CCN1CCC(c3noc4cc(F)ccc34)CC1)CCCC2 [Risperidone] | – | – | 400 | –

Now from value to compound, other results behind:

Row | Cmax * liver:plasma partition ratio/IC50 (BCRP [1]) | IC50 (BCRP [3]) [µM] | SMILES | Cmax [2] [nM] | Liver:plasma partition ratio [4]
5 | – | > 100 | O=C(CCCN1CCC(O)(c2ccc(Cl)cc2)CC1)c1ccc(F)cc1 [Haloperidol] | 50 | –
6 | 0.5 | 51 | Cc1nc2n(c(=O)c1CCN1CCC(c3noc4cc(F)ccc34)CC1)CCCC2O (stereo not drawn) [Paliperidone, 9-hydroxy-risperidone] | 400 | 67.5 ^5
7 | 0.04–0.10 | 66.1 | OCCOCCN1CCN(C2=Nc3ccccc3Sc3ccccc32)CC1 [Quetiapine, quetiapine] | 800 | 3.5–8.7 ^8
